“Also recorded” adds a separate entry of the source.
How the values were obtained:
V79 cells [1] = experiment: Clonogenicity, killing of V79 cells using photodynamic therapy (Table 3); type: cell-based, Chinese hamster; conditions: for photosensitizing activity, killing V79 cells (in words): discussion of Table 3
Description: Using the cell culture methods described above, V79 cells Chinese hamster lung fibroblasts were treated with either 0.5 or 1.0 μM of the phthalocyanines listed in Table 3. About 18 hours thereafter, the cells were irradiated with increasing doses of 675 nm broad band red light from a 500 W tungsten-halogen lamp fitted with a 600 nm high pass filter, to determine the light dosage that would kill 90% of the phthalocyanine treated cells. Where 90% of the cells were not killed, the maximum percent of cells killed were determined, (expressed as % survival) and the related light dosage recorded.

V79 cells [2] = system: V79 cells
Description: V79 cells Chinese hamster lung fibroblasts were cultured using the cell culture methods described above. […] When the filters were dry, the phthalocyanines were extracted into ethanol and the absorption determined at the peak wavelength, usually 668 nm.

RIF-1 tumors = experiment: PDT of RIF-1 implanted tumors (Table 7); type: in vivo, C3H/HeN mice; conditions: for effect on tumor volume / growth (in words): 1 mg/kg; for Doubling Time of Initial Tumor Volume after PDT: 1 mg/kg in corn oil, 675 nm, 135 J/cm^2
Description: The relative effectiveness at reducing tumor volume of selected phthalocyanine compounds at a given dosage was compared in vivo. RIF-1, i.e., radiation-induced fibrosarcoma, tumors were implanted into the backs of C3H/HeN mice. One tumor was implanted per mouse. Each of the phthalocyanine compounds listed in Table 7 was sonicated and vortexed in corn oil to produce a suspension. When the tumors reached […] in diameter and 2-3 mm in thickness, each mouse received 1 mg/kg in 0.1 ml of the corn oil, of the phthalocyanine suspension. For comparison, select mice received a conventional photosensitizer; either 5 mg/kg of chloroaluminum phthalocyanine tetrasulfonate, herein also referred to as "AlPcTS" in phosphate buffered saline or 5 mg/kg of Photofrin®-II in 5% dextrose. Twenty-four hours after the photosensitizers were administered, the tumors were irradiated with visible radiation delivered by an argon-pumped dye laser. The mice that received a phthalocyanine photosensitizer received light having a wavelength of 675 nm and the mice that received the Photofrin® II photosensitizer received light having a wavelength of 630 nm. Each tumor received 135 J/cm^2 of radiation. Tumor size was measured every day using calipers. The initial tumor volume was 50±10 mm^3. Tumor volume was calculated according to the hemiellipsoid model by the formula: [formula] Where l is length Where W is width

L5178Y cells = experiment: Induction of apoptosis (DNA fragmentation) in L5178Y-R cells (Table 6); type: cell-based, mouse; conditions: for apoptosis (in words): various concentrations and fluences
Description: (§1) Mouse lymphoma L5178y-R (hereinafter also referred to as "LY-R") cells were grown in suspension culture as described in Ramakrishnan N., Oleinick, N. L. Clay, M. E., Horng, M. F., Antunez, A. R., and Evans H. H., DNA lesions and DNA degradation in mouse lymphoma L5178Y cells after photodynamic treatment sensitized by chloroaluminum phthalocyanine. Photochem. Photobiol. 50, 373-378, 1989 and Agarwal, M. L., Clay, M. E., Harvey, E. J., Evans, H. H., Antunez, A. R., and Oleinick, N. L. Photodynamic therapy induces rapid cell death by apoptosis in L5178Y mouse lymphoma cells. Cancer Res., 51, 5993-5996, 1991.
(§2) The cells were used while in exponential growth. Stock solutions of either 0.5 or 1 mM of PcIV, PcXII, PcX, PcXVIII were prepared in dimethylformamide unless otherwise indicated and added to the 10 mL medium at a rate of 1 μL per mL. After allowing 18 hours for uptake of the phthalocyanine into the cells, the flasks containing the cultures were placed on a glass exposure tray above a 500-W tungsten-halogen lamp. The exposure tray was fitted with a 600-nm high-pass filter. Flasks were exposed to various fluences of red light (up to 30 kJ/m^2) at a fluence rate of approximately 74 W/m^2). After irradiation, the cells were collected by centrifugation.
(§3) For measurement of clonogenic cell survival, aliquots were plated in medium containing soft agar as described in Ramakrishnan N., Oleinick, N. L. Clay, M. E., Horng, M. F., Antunez, A. R., and Evans H. H., DNA lesions and DNA degradation in mouse lymphoma L5178Y cells after photodynamic treatment sensitized by chloroaluminum phthalocyanine. Photochem. Photobiol. 50, 373-378, 1989. The aliquots were plated in sufficient numbers to produce 50-200 colonies. The dishes were kept in an incubator at 37° C. in an atmosphere of 5% CO2 and 95% air for 10-14 days to allow viable cells to form colonies. Colonies were counted by eye. Controls treated with the phthalocyanine alone had plating efficiencies of ~90%. The plating efficiencies of the treated cells are normalized to the plating efficiencies of control cells in each experiment. For measurement of the induction of apoptosis, DNA was isolated from the treated and control cells 2 hours after photodynamic therapy, subjected to electrophoresis on 1.5% agarose, stained with ethidium bromide, and visualized by UV transillumination, as described in Agarwal et. al. The results are shown in Tables 4, 5 and 6 and in FIG. 3.
Cells were treated with various concentrations of the compounds listed in the table and various light fluences. DNA gels were prepared and examined for the characteristic "ladder" pattern of DNA fragments. For each Pc, the minimum total PDT dose tested (calculated as the product of the minimum phthalocyanine concentration and the minimum fluence) which produced visible DNA fragments is recorded. […] PcXVIII was also added at 0.5 and 1.0 μM.

L5178Y-R (LY-R) cells = experiment: Clonogenic survival of PDT-treated L5178Y-R cells (Tables 4 and 5, FIG. 3); type: cell-based, mouse; conditions: 0.5 μM; for activity relative to PcXII: from Table 5; for LD 90: fluence reducing survival to 10%; for LD50: fluence reducing survival to 50%
Description: as §1, §2, §3
In Table 4 each phthalocyanine was present at 0.5 μM, and the normalized plating efficiencies are presented as mean and standard deviation at each fluence tested. […] This relative activity of these four phthalocyanines is the same as obtained from screening in V79 cells.
PcXII when present in the culture medium at 0.5 μM requires less light, that is the lowest fluence, to kill either 50% […] of the cells. PcIV is about 80% as active as PcXII, PcX is 44% as active as PcXII and PcXVIII is 22% as active as PcXII.

[3] = 0.5 μM, 18 h, light dose killing 90% of cells

Compound	Uptake (from Table 2) (V79 cells [2]) [n Moles/10^6 cells/μM]	Uptake into V79 cells, composite value (V79 cells [2]) [n Moles/10^6 cells/μM]	effect on tumor volume / growth (in words) (RIF-1 tumors)	Doubling Time of Initial Tumor Volume after PDT (RIF-1 tumors) [days]	Minimum Demonstrated Condition to induce apoptosis: C × F (L5178Y cells; 0.5 μM) [μm × kJ/m^2]	Minimum Demonstrated Condition to induce apoptosis: Fluence (L5178Y cells; 0.5 μM) [kJ/m^2]	Minimum Demonstrated Condition to induce apoptosis: C × F (L5178Y cells; 1.0 μM) [μm × kJ/m^2]	Minimum Demonstrated Condition to induce apoptosis: Fluence (L5178Y cells; 1.0 μM) [kJ/m^2]	apoptosis (in words) (L5178Y cells)	LD 90 (V79 cells [1]; [3]) [kJ/m^2]	also measured
C[Si](C)(CCCCNS(C)(=O)=O)O[Si]1(O)n2c3c4ccccc4c2N=C2N=C(N=c4c5ccccc5c(n41)=NC1=NC(=N3)c3ccccc31)c1ccccc12 (centres unmarked) [Compound IX, HOSiPCOSi(CH3)2 (CH2)4 NHSO2 CH3]	0.3	0.3	particularly effective in reducing tumor volume	11	4.0	8.0	12.0	12.0	activity increases and then decreases as the concentration is raised	–	Maximum Effect (% survival) (V79 cells [1]; 0.5 μM, at 9 kJ/m^2): 44%; Minimum Demonstrated Condition to induce apoptosis: C × F (L5178Y cells; 0.3 μM): 3.6 μm × kJ/m^2; Minimum Demonstrated Condition to induce apoptosis: Fluence (L5178Y cells; 0.3 μM): 12.0 kJ/m^2
C[Si](C)(CCCCN)O[Si]1(O[Si](C)(C)CCCCN)n2c3c4ccccc4c2N=C2N=C(N=c4c5ccccc5c(n41)=NC1=NC(=N3)c3ccccc31)c1ccccc12 [Compound VII, SiPc[OSi(CH3)2 (CH2)4 NH2]2]	0.2	0.2	–	–	1.5	3.0	–	–	–	–	LD 90 (V79 cells [1]; 0.5 μM, preplated data only): 4 kJ/m^2; photosensitizing activity, killing V79 cells (in words) (V79 cells [1]; listed as PcVII): most active at killing V79 cells; also recorded: one of the better photosensitizers; uptake by V79 cells (in words) (V79 cells [2]): poor uptake
CCN(CCC[Si](C)(C)O[Si]1(O)n2c3c4ccccc4c2N=C2N=C(N=c4c5ccccc5c(n41)=NC1=NC(=N3)c3ccccc31)c1ccccc12)CCN(C)C (centres unmarked) [Compound X, HOSiPcOSi(CH3)2 (CH2)3 N(CH2 CH3)(CH2)2 N(CH3)2]	0.7	0.7	–	–	3.0	6.0	3.0	3.0	the same minimum value for the C×F product was obtained in both cases	7	photosensitizer activity in LY-R cells (in words) (L5178Y-R (LY-R) cells): active photosensitizers; activity relative to PcXII (L5178Y-R (LY-R) cells): 44%; LD 90 (L5178Y-R (LY-R) cells): 4.19 kJ/m^2; LD50 (L5178Y-R (LY-R) cells): 2.38 kJ/m^2
CCN(CCC[Si](C)(C)O[Si]1(O[Si](C)(C)CCCN(CC)CCN(C)C)n2c3c4ccccc4c2N=C2N=C(N=c4c5ccccc5c(n41)=NC1=NC(=N3)c3ccccc31)c1ccccc12)CCN(C)C [Compound XVIII, SiPc[OSi(CH3)2 (CH2)3 N(CH2 CH3)(CH2)2 N(CH3)2]2]	–	–	particularly effective in reducing tumor volume	12	5.0	10.0	3.0	3.0	minimum value of C×F differed only slightly for the two conditions	–	LD 90 (V79 cells [1]; 1 μM, 18 h): 7 kJ/m^2; photosensitizing activity, killing V79 cells (in words) (V79 cells [1]): good activity; activity relative to PcXII (L5178Y-R (LY-R) cells): 22%; LD 90 (L5178Y-R (LY-R) cells): 7.81 kJ/m^2; LD50 (L5178Y-R (LY-R) cells): 5.00 kJ/m^2; photosensitizer activity in LY-R cells (in words) (L5178Y-R (LY-R) cells; listed as PcXVIII): active photosensitizers; also recorded: least active
CN1CCN(CCC[Si](C)(C)O[Si]2(O)n3c4c5ccccc5c3N=C3N=C(N=c5c6ccccc6c(n52)=NC2=NC(=N4)c4ccccc42)c2ccccc23)CC1 (centres unmarked) [Compound XXVIII, HOSiPcOSi(CH3)2 (CH2)3 NC4 H8 NCH3]	–	–	–	24	–	–	–	–	–	1.8	photosensitizing activity, killing V79 cells (in words) (V79 cells [1]; listed as Pc XXVIII): photodynamic killing efficiency is superior to PcXII; photosensitizing activity, killing V79 cells (in words) (V79 cells [1]; listed as PcXXVIII): most active at killing V79 cells; also recorded: highest activity in killing V79 cells of all of the phthalocyanines; effect on tumor volume / growth (in words) (RIF-1 tumors; listed as Pc XXVIII): significantly impair the growth of the tumors; effect on tumor volume / growth (in words) (RIF-1 tumors; listed as PcXXVIII): particularly effective in reducing tumor volume; Minimum Demonstrated Condition to induce apoptosis: C × F (L5178Y cells; 0.3 μM): 0.9 μm × kJ/m^2; Minimum Demonstrated Condition to induce apoptosis: Fluence (L5178Y cells; 0.3 μM): 3.0 kJ/m^2
HOSiPcOSi(CH3)2 (CH2)3 N[(CH2)3 N(CH3)2 ]2 [Compound XXVII]	1.5	1.5	–	–	–	–	–	–	–	6.8	uptake by V79 cells (in words) (V79 cells [2]): taken up particulary well
SiPc[OSi(CH3)2 (CH2)4 NHSO2 CH3 ]2 [Compound VIII]	0.2	0.2	the doubling of tumor volume was delayed in the animals treated with each of the compounds except PcVIII	4	–	–	–	–	–	–	Maximum Effect (% survival) (V79 cells [1]; 1 μM, at 30 kJ/m^2): 94%; induction of apoptosis (L5178Y cells; 1 μM at a fluence of 30 kJ/m^2): did not induce apoptosis

Source: patent US5484778A, “Phthalocyanine photosensitizers for photodynamic therapy and methods for their use” (priority 1993, dated 1996)
